Assay results published in patent publication US9108959B2, “Process for the preparation of an orexin receptor antagonist” (Merck Sharp & Dohme Corp., priority 2011, dated 2015).

Assay: relative thermodynamic stability of crystalline forms (slurry of equal amounts of the two forms in EtOH at various temperatures)
Format: physicochemical
Conditions: for temperatures at which the form is the thermodynamically most stable crystalline form: enantiotropically related forms
Method: Anhydrous form I and Anhydrous form II are enatiotropically related. […] The transition temperature between anhydrous form I and anhydrous form II was determined by slurring a mixture containing equal amounts of the two forms in EtOH at various temperatures. The transition temperature between anhydrous form I and anhydrous form II is between 35 and 40° C. […] Anhydrous Form II can be synthesized using a crystallization process that is more efficient and results in improved particle size and morphology control relative to anhydrous form I. Anhydrous form II has better crystallinity, better filtration properties and gives better purity rejection than anhydrous form I. Anhydrous form II has better processability for preparing formulations than Anhydrous form I.

Compound	stability of crystalline phase (at 25° C.)	temperatures at which the form is the thermodynamically most stable crystalline form [°C]
Cc1ccc(-n2nccn2)c(C(=O)N2CCN(c3nc4cc(Cl)ccc4o3)CC[C@H]2C)c1 [Anhydrous form I, [(7R)-4-(5-chloro-1,3-benzoxazol-2-yl)-7-methyl-1,4-diazepan-1-yl][5-methyl-2-(2H-1,2,3-triazol-2-yl)phenyl]methanone]	most stable crystalline phase	≤ 35
Cc1ccc(-n2nccn2)c(C(=O)N2CCN(c3nc4cc(Cl)ccc4o3)CC[C@H]2C)c1 [Anhydrous form II, [(7R)-4-(5-chloro-1,3-benzoxazol-2-yl)-7-methyl-1,4-diazepan-1-yl][5-methyl-2-(2H-1,2,3-triazol-2-yl)phenyl]methanone]		≥ 40
